Here are results for four molecules from US20230337674A1, “FUNGICIDAL COMPOSITIONS” (SYNGENTA CROP PROTECTION AG, priority 2020, published 2023).

Each structure is given as a SMILES string. Several values for one entry are separate records, joined by “and”; a condition that tells them apart may be missing. Equal values may be shown once. Read-outs that look alike come from different tables or passages of the source.

Experiment [1] deals with Phakopsora pachyrhizi. In words: Phakopsora pachyrhizi on leaf disks from treated whole soybean plants. In kind it is in vivo. To be noted: evaluation 11 to 14 days after inoculation; for inhibition at 0.5 g/ha / inhibition at 1 g/ha / inhibition at 2 g/ha / inhibition at 0.25 g/ha: Phakopsora pachyrhizi, foliar. Here is the method:
Phakopsora pachyrhizi (Soybean Rust):
Whole soybean plants are treated with the recited active ingredients 4 weeks after planting. 1 day after spraying leaf disks are cut from the first trifoliate leaf. Five repetitions at each rate are conducted. The leaf disks are inoculated with Phakopsora pachyrhizi (Asian soybean rust) one day after treatment. Evaluation of the leaf disks is conducted 11 to 14 days after inoculation and the activity is derived from the relation of the treated vs untreated, infested check. The rates of the active ingredients used are given in Table as g active ingredient (a.i.)/ha.

Experiment [2] deals with Septoria tritici. The experiment can be described thus: Septoria tritici growth inhibition in nutrient broth (microtiter plate). In kind it is cell-based. As to conditions: Zymoseptoria tritici, read-out: Observed Activity (%). Here is the method: Septoria tritici (Leaf Blotch):
Conidia of the fungus from cryogenic storage were directly mixed into nutrient broth (PDB potato dextrose broth). A DMSO solution of the test compounds was placed into a microtiter plate (96-well format) and the nutrient broth containing the fungal spores was added to it. The test plates were incubated at 24° C. and the inhibition of growth was determined photometrically after 72 hrs.

Experiment [3] has as its system Corynespora cassiicola. The experiment can be described thus: Corynespora cassiicola growth inhibition in nutrient broth (microtiter plate). To be noted: read-out: Observed Activity (%). The class given is cell-based. Here is the method: Corynespora cassiicola (Target Spot of Soybean, Target Leaf Spot of Tomato):
Conidia of the fungus from cryogenic storage were directly mixed into nutrient broth (PDB potato dextrose broth). A DMSO solution of the test compounds was placed into a microtiter plate (96-well format) and the nutrient broth containing the fungal spores was added to it. The test plates were incubated at 24° C. and the inhibition of growth was determined photometrically after 3-4 days at 620 nm.

Setting [4] is: single active, 0.5 g/ha, read-out: Observed Activity (%).
Where [5] appears, read: single active, read-out: Observed Activity (%).

Consider `O=C(Nc1ccccc1F)c1ccc(-c2noc(C(F)(F)F)n2)cc1` [Compound A-1.3, N-(2-fluorophenyl)-4-[5-(trifluoromethyl)-1,2,4-oxadiazol-3-yl]benzamide], for which the inhibition at 0.5 g/ha in experiment [1] (setting [4]) was found to be 0%. Further, in experiment [1] (setting [5]), the inhibition at 1 g/ha is 29% and the inhibition at 2 g/ha was 78%.

With `C[C@@H]1CC(C)(C)c2cccc(NC(=O)c3cn(C)nc3C(F)F)c21` [Inpyrfluxam, 3-(difluoromethyl)-1-methyl-N-[(3R)-1,1,3-trimethylindan-4-yl]pyrazole-4-carboxamide, reference compound], in experiment [1] (read-out: Observed Activity (%), single active, 0.25 g/ha), the inhibition at 0.25 g/ha came to 50%. Besides, in experiment [1] (single active, 0.5 g/ha), the “Observed Activity (%)” value was 46% and 82%. In addition, in experiment [2] (72 h), the inhibition at 0.02 ppm was 0% and the inhibition at 0.04 ppm was 20%. In experiment [3], the inhibition at 0.01 ppm was determined as 0% and the inhibition at 0.02 ppm amounted to 0%.

With `CNC(=S)c1ccc(-c2noc(C(F)(F)F)n2)cc1` [Compound A-1.2, N-methyl-4-[5-(trifluoromethyl)-1,2,4-oxadiazol-3-yl]benzenecarbothioamide], the inhibition at 0.5 g/ha in experiment [1] (setting [4]) came out at 0%. In experiment [1] (setting [5]), the inhibition at 1 g/ha came out at 88% and the inhibition at 2 g/ha was 95%. The inhibition at 5 ppm in experiment [2] (single active, 72 hrs, 24° C.) turned out to be 50%. In experiment [3] (single active, 5 ppm, 3-4 days, 24° C.), the inhibition at 5 ppm worked out at 0%. Also, in experiment [3] (single active, 10 ppm, 3-4 days, 24° C.), the inhibition at 10 ppm was determined as 0%. Moreover, in experiment [3] (single active, 20 ppm, 3-4 days, 24° C.), the inhibition at 20 ppm turned out to be 0%.

As for `CNC(=O)C(F)(F)c1ccc(-c2noc(C(F)(F)F)n2)cc1` [Compound A-1.1, 2,2-difluoro-N-methyl-2-[4-[5-(trifluoromethyl)-1,2,4-oxadiazol-3-yl]phenyl]acetamide], in experiment [1] (single active, 0.25 g/ha, read-out: Observed Activity (%)), the inhibition at 0.25 g/ha came out at 0%. Further, the inhibition at 0.5 g/ha in experiment [1] (setting [4]) came to 3%. Also, the inhibition at 1 g/ha in experiment [1] (setting [5]) was determined as 54%. In experiment [2] (single active, 72 hrs, 24° C.), the inhibition at 5 ppm came out at 20%. Also, the inhibition at 10 ppm in experiment [2] (single active, 10 ppm, 72 hrs, 24° C.) is 20%. Moreover, in experiment [2] (single active, 20 ppm, 72 hrs, 24° C.), the inhibition at 20 ppm amounted to 50%.
